{
  "source": "patent US20260325481A1",
  "about": "“THERAPY SELECTION AND TREATMENT OF NEURODEGENERATIVE DISORDERS” (Anavex Life Sciences Corp., priority 2022, published 2026)",
  "key": {"SIGMAR1": {"tested_on": "SIGMAR1", "experiment": "SIGMAR1 levels in PDD-001 patients", "assay_type": "in vivo, human", "details": "PDD-001 study", "procedure": "The trial enrolled 132 adults, ages 50-85, with PDD, and was successfully concluded in September 2020. Participants, recruited at multiple sites in Spain and Australia, were randomly assigned to one of two doses groups (with an escalating ANAVEX 2-73 dose up to 30 or 50 mg oral capsules) or to a placebo, once daily for 14 weeks (see FIG. 1 for details). The trial's main goals were to assess the therapy's safety and changes in patients' cognitive function, measured using the cognitive drug research computerized assessment system—a test that looks at multiple cognitive skills, such as choice reaction time (choosing between similar objects), vigilance, and episodic memory (remembering new personal experiences or shared information). Secondary goals included changes in patients' motor abilities—assessed with the Movement Disorders Society Unified Parkinson's Disease Rating Scale (MDS-UPDRS) Part III—and sleep quality. […] This sleep disorder is associated with greater cognitive impairment and a higher risk of dementia. […] After 14 weeks, the MDS-UPDRS total score dropped by 10.98 points (indicating an easing in disease severity) in the high-dose group and rose by 3.53 points in the placebo group. This represented an adjusted mean improvement of 14.51 points—surpassing the established, clinically meaningful 7.1 point-cut-off—and a relative improvement of 18.9% over 14 weeks. […]"}, "[1]": {"tested_on": "patients with Parkinson's Disease with Dementia (PDD)", "experiment": "ANAVEX 2-73-PDD-001 Phase 2 study (randomized, double blind, placebo-controlled) in Parkinson's Disease with Dementia", "assay_type": "in vivo, human", "procedure": "In order to assess the safety, tolerability and efficacy of ANAVEX® 2-73 (blarcamesine) oral capsules in treating cognitive impairment in patients with Parkinson's Disease with Dementia (PDD), a phase 2 study, coded “ANAVEX® 2-73-PDD-001 study” (FIG. 1), was conducted. The study was multi-center, randomized, double blind, placebo-controlled, parallel group with 3-arm. The study included a 2-week Screening/Baseline Observation Period and a 14-week Treatment Period (including a 2 week Titration Period), and a 2-week Safety Follow-Up Period. A total of 132 patients were enrolled in the study and were randomly assigned to three testing arms (FIG. 1). In ANAVEX2-73 High Dose arm, 44 patients were given oral capsules of ANAVEX2-73 once daily in an escalating dose of 10 mg, 20 mg, 30 mg and 50 mg. In ANAVEX2-73 Mid Dose arm, 44 patients were given oral capsules of ANAVEX2-73 once daily in an escalating dose of 10 mg, 20 mg, and 30 mg. In placebo group, 44 patients were given placebo capsules. Outcome measures included Cognitive Drug Research (CDR) Computerized Assessment System on Continuity of Attention; Change from Baseline to End of Treatment in Continuity of Attention as measured by Cognitive Drug Research (CDR) Computerized Assessment System Continuity of Attention; Number of participants with treatment-related adverse events as assessed by CTCAE v4.0 [Time Frame: 14 weeks]; Assessment of the safety and tolerability of ANAVEX2-73 compared to placebo; MDS-UPDRS Part III Total Score (Motor Scores); Change from baseline to End of Treatment as measured by MDS-UPDRS Part III Total Score (Motor Scores); SDS-CL-25 [Time Frame: 14 weeks]; Incidence of sleep disorders symptoms (SDS-CL-25); and DNA/RNA Sequencing. Since MDS-UPDRS is indicative of the motor activity for Parkinson Disease (PD), the trial can also identify the effects of ANAVEX® 2-73 on PD patients.\nThe trial enrolled 132 adults, ages 50-85, with PDD, and was successfully concluded in September 2020. Participants, recruited at multiple sites in Spain and Australia, were randomly assigned to one of two doses groups (with an escalating ANAVEX 2-73 dose up to 30 or 50 mg oral capsules) or to a placebo, once daily for 14 weeks (see FIG. 1 for details). The trial's main goals were to assess the therapy's safety and changes in patients' cognitive function, measured using the cognitive drug research computerized assessment system—a test that looks at multiple cognitive skills, such as choice reaction time (choosing between similar objects), vigilance, and episodic memory (remembering new personal experiences or shared information). Secondary goals included changes in patients' motor abilities—assessed with the Movement Disorders Society Unified Parkinson's Disease Rating Scale (MDS-UPDRS) Part III—and sleep quality. […] This sleep disorder is associated with greater cognitive impairment and a higher risk of dementia. […] After 14 weeks, the MDS-UPDRS total score dropped by 10.98 points (indicating an easing in disease severity) in the high-dose group and rose by 3.53 points in the placebo group. This represented an adjusted mean improvement of 14.51 points—surpassing the established, clinically meaningful 7.1 point-cut-off—and a relative improvement of 18.9% over 14 weeks. These findings highlight ANAVEX 2-73's ability to not only slow, but also reverse, symptoms that progress in Parkinson's disease, potentially fulfilling an urgent unmet medical need, Anavex stated in its release. […] After completing the PDD-001 trial, patients had the option of being treated with ANAVEX 2-73 for nearly one year in its extension study, called ANAVEX 2-73-PDD-EP-001 (NCT04575259).\nRandomized, placebo-controlled clinical trial in 132 patients with Parkinson's disease with dementia (PDD) included prespecified biomarkers of response as well as Whole Exome Sequencing DNA data and full RNA exome expression data collection. […]"}, "[2]": {"tested_on": "Sigma-1 receptor (SIGMAR1)", "details": "cited from earlier work"}},
  "data": [
    {"smiles": "CN(C)CC1CCOC1(c1ccccc1)c1ccccc1.Cl", "note": "(centres unmarked) [ANAVEX2-73, tetrahydro-N,N-dimethyl-2,2-diphenyl-3-furanmethanamine hydrochloride]", "values": [
      {"measurement": "SIGMAR1 levels", "setting": "SIGMAR1", "result": "significant increase"},
      {"measurement": "Association of rise in SIGMAR1 levels with clinical response", "setting": "SIGMAR1; attention measures, MDS-UPDRS total and Part III", "result": "significantly associated with improvements in attention measures, and reductions in both MDS-UPDRS total and MDS-UPDRS Part III (motor scores)"},
      {"measurement": "Dementia assessment, Quality of Episodic Memory", "setting": "[1]; 14-week trial, oral", "result": "dose-dependent, statistically significant improvement"},
      {"measurement": "REM sleep behavior disorder", "setting": "[1]; 14 weeks, previously reported results, confirmed", "result": "lessened REM sleep behavior disorder"},
      {"measurement": "Cognitive skills", "setting": "[1]; CDR computerized assessment system, 14 weeks, previously reported results, confirmed", "result": "significantly improved several cognitive skills"},
      {"measurement": "MDS-UPDRS Part II response", "setting": "[1]; MS4A4A Wild Type rs6591561 cohort (excluding rs6591561 homozygous mutation carriers)", "result": "strongest response"},
      {"measurement": "Response depending on patients' MS4A4A (rs6591561) carrier status", "setting": "[1]; PDD-001 study", "result": "Different ANAVEX® 2-73 response"},
      {"measurement": "Motor and non-motor Parkinson's symptoms (MDS-UPDRS total score)", "setting": "[1]; high dose (50 mg) once daily oral, 14 weeks", "result": "statistically significant and clinically meaningful reductions"},
      {"measurement": "Parkinson's assessment, MDS-UPDRS Total score", "setting": "[1]; high oral dose once daily, 14-week trial", "result": "significant improvement"},
      {"measurement": "Safety", "setting": "[1]; oral capsules once daily up to 30 or 50 mg, 14 weeks, previously reported results", "result": "generally safe"},
      {"measurement": "Sigma-1 receptor (SIGMAR1) activity", "setting": "[2]", "result": "agonist"}
    ]}
  ]
}
